Experimental data from US5126327A, “Melanocyte-stimulating hormone inhibitor and external preparation containing the same” (Lion Corporation, priority 1989, dated 1992).
Residues, ends and D or L forms follow the SMILES beside them. No end group written: not given here.

Tests used:
[1] = system: hair follicle melanocytes; test: MSH-antagonizing effect: eumelanin production in cultured skin grafts, specimen pre-incubated with grafts before α-MSH (Example 2); format: cell-based, yellow mice (C 57 BL/6J-A'); parameters: key: ±: weak; +: strong; conditions: skin grafts cultured in Ham's F-12 at 37° C. for 2 days; for Eumelanin production, 10^-9 M of α-MSH and 10^-8 M of specimen added: microscope observation at hair follicles
Protocol: (§1) Skin grafts (about 1 mm×1 mm) of yellow mice (C 57 BL/6J-A') (7.5 days after the birth) containing hair follicle melanocytes were cultured in Ham's F-12 culture medium at 37° C. for 2 days. The culture media used were: (i) Ham's F-12 medium containing α-MSH, (ii) that containing both α-MSH and the compound of the present invention, i.e., the compound of the present invention and the skin grafts had been incubated in a Ham's F-12 medium so as to interact the compounds with a receptor on the melanocyte surface of the skin and then the resultant was contacted with α-MSH in a fresh Ham's F-12 medium and (iii) that containing no additive. After completion of the culture followed by fixation with 10% formalin, specimens were prepared by an ordinary method.

[2] = system: pigmented spots (chloasmata or freckles); test: External preparation applied to pigmented spots of patients; format: in vivo, human; conditions: for Fading/relief of pigmented spots versus comparative cream / Skin trouble during or after use of the cream: cream containing 0.001 wt. % of compound; for Fading/relief of pigmented spots versus comparative cream: applied twice a day for two months, eight male and female patients; for Skin trouble during or after use of the cream: twice a day for two months
Description: The cream thus prepared was applied to pigmented spots (chloasmata or freckles) of eight male and female patients twice a day (in the morning and evening) for two months.

[3] = system: hair follicle melanocytes; test: MSH-inhibiting effect: eumelanin production in cultured skin grafts, specimen pre-mixed with α-MSH (Example 10); format: cell-based, yellow mice (C 57 BL/6J-A'); parameters: key: ±: weak; +: strong; conditions: for Eumelanin production, 10^-9 M of α-MSH and 10^-8 M of specimen added: α-MSH and specimen mixed first, then skin grafts added, Ham's F-12, 37° C., 2 days
Protocol: as §1, with “i.e., α-MSH and” for “i.e.,”, “were mixed” for “and the skin grafts had been incubated in a Ham's F-12 medium”, “each other” for “the compounds with a receptor on the melanocyte surface of the skin”, “skin grafts were added thereto,” for “resultant was contacted with α-MSH in a fresh Ham's F-12 medium”

Row | Skin trouble during or after use of the cream [2] | Compound | Eumelanin production, 10^-9 M of α-MSH and 10^-8 M of specimen added [1] | other results
1 | no skin trouble was observed | CSCC[C@H](NC(=O)[C@H](CO)NC(=O)[C@H](Cc1ccc(O)cc1)NC(=O)[C@H](CO)NC(C)=O)C(=O)N[C@@H](CCC(=O)O)C(=O)N[C@@H](Cc1c[nH]cn1)C(=O)N[C@@H](CO)C(=O)N[C@@H](CCCNC(=N)N)C(=O)N[C@@H](Cc1c[nH]c2ccccc12)C(=O)NCC(=O)N[C@@H](CCCCN)C(=O)N1CCC[C@H]1C(=O)N[C@H](C(N)=O)C(C)C [Compound No. 40, Ac--Ser--Tyr--Ser--Met--Glu--His--Ser--Arg--Trp--Gly--Lys--Pro--Val--NH2] | ± | Fading/relief of pigmented spots versus comparative cream [2]: far more faded
2 |  | CC[C@H](C)[C@H](NC(C)=O)C(=O)N[C@@H](CC(C)C)C(=O)N[C@@H](CC(C)C)C(=O)N[C@@H](C)C(=O)N[C@@H](CS)C(=O)N[C@@H](C)C(=O)N[C@@H](CCCNC(=N)N)C(=O)N[C@H](C(=O)N[C@@H](CO)C(=O)N1CCC[C@H]1C(=O)NCC(=O)N[C@@H](CCCNC(=N)N)C(=O)N[C@@H](CCCNC(=N)N)C(N)=O)[C@@H](C)CC [Compound No. 116, Ac--Ile--Leu--Leu--Ala--Cys--Ala--Arg--Ile--Ser--Pro--Gly--Arg--Arg--NH2] (Ac-ILLACARISPGRR-NH2) |  | Eumelanin production, 10^-9 M of α-MSH and 10^-8 M of specimen added [3]: ±; Relief of pigmented spots versus comparative milky lotion ([2]; milky lotion containing 0.0001 % of compound, same method as Example 3): relieved the pigmented spots
3 |  | Ac--Cys--His--Cys--Cys--Trp--Arg--Ser--His--Gln--Pro--Ala--Arg--Pro--NH2 (Ac-CHCCWRSHQPARP-NH2; cysteine pairing not given here) [Compound No. 85] | ± | Fading/relief of pigmented spots versus comparative cream [2]: relieved the pigmented spots
4 |  | CSCC[C@H](NC(C)=O)C(=O)N[C@@H](CCC(=O)O)C(=O)N[C@@H](Cc1c[nH]cn1)C(=O)N[C@@H](CO)C(=O)N[C@@H](CCCNC(=N)N)C(=O)N[C@@H](Cc1c[nH]c2ccccc12)C(=O)NCC(=O)N[C@@H](CCCCN)C(N)=O [Compound No. 14, Ac--Met--Glu--His--Ser--Arg--Trp--Gly--Lys--NH2] (Ac-MEHSRWGK-NH2) | ± | 
5 | no skin trouble was observed | CC[C@H](C)[C@H](N)C(=O)N[C@@H](CC(C)C)C(=O)N[C@@H](CC(C)C)C(=O)N[C@@H](C)C(=O)N[C@@H](CS)C(=O)N[C@@H](C)C(=O)N[C@@H](CCCNC(=N)N)C(=O)N[C@H](C(=O)N[C@@H](CO)C(=O)N1CCC[C@H]1C(=O)NCC(=O)N[C@@H](CCCNC(=N)N)C(=O)N[C@@H](CCCNC(=N)N)C(=O)O)[C@@H](C)CC [Compound No. 113, Ile--Leu--Leu--Ala--Cys--Ala--Arg--Ile--Ser--Pro--Gly--Arg--Arg] (H-ILLACARISPGRR-OH) |  | 
6 | no skin trouble was observed | CC[C@H](C)[C@H](NC(=O)[C@H](CC(C)C)NC(=O)[C@H](CC(C)C)NC(=O)[C@H](CC(C)C)NC(=O)[C@H](CCC(N)=O)NC(=O)[C@H](CC(C)C)NC(=O)[C@H](C)NC(=O)[C@H](Cc1c[nH]cn1)NC(=O)[C@@H](N)CC(C)C)C(=O)N[C@@H](CC(C)C)C(=O)N[C@@H](CC(C)C)C(=O)N[C@@H](C)C(=O)N[C@@H](CS)C(=O)N[C@@H](C)C(=O)N[C@@H](CCCNC(=N)N)C(=O)N[C@H](C(=O)N[C@@H](CO)C(=O)N1CCC[C@H]1C(=O)NCC(=O)N[C@@H](CCCNC(=N)N)C(=O)N[C@@H](CCCNC(=N)N)C(=O)O)[C@@H](C)CC [Compound No. 132, Leu--His--Ala--Leu--Gln--Leu--Leu--Leu--Ile--Leu--Leu--Ala--Cys--Ala--Arg--Ile--Ser--Pro--Gly--Arg--Arg] (H-LHALQLLLILLACARISPGRR-OH) |  | 
7 |  | CC[C@H](C)[C@H](NC(=O)[C@H](CC(C)C)NC(=O)[C@H](CC(C)C)NC(=O)[C@H](CC(C)C)NC(=O)[C@H](CCC(N)=O)NC(=O)[C@H](CC(C)C)NC(=O)[C@H](C)NC(=O)[C@H](Cc1c[nH]cn1)NC(=O)[C@H](CC(C)C)NC(C)=O)C(=O)N[C@@H](CC(C)C)C(=O)N[C@@H](CC(C)C)C(=O)N[C@@H](C)C(=O)N[C@@H](CS)C(=O)N[C@@H](C)C(=O)N[C@@H](CCCNC(=N)N)C(=O)N[C@H](C(=O)N[C@@H](CO)C(=O)N1CCC[C@H]1C(=O)NCC(=O)N[C@@H](CCCNC(=N)N)C(=O)N[C@@H](CCCNC(=N)N)C(N)=O)[C@@H](C)CC [Compound No. 135, Ac--Leu--His--Ala--Leu--Gln--Leu--Leu--Leu--Ile--Leu--Leu--Ala--Cys--Ala--Arg--Ile--Ser--Pro--Gly--Arg--Arg--NH2] (Ac-LHALQLLLILLACARISPGRR-NH2) |  | Eumelanin production, 10^-9 M of α-MSH and 10^-8 M of specimen added [3]: ±
8 |  | α-MSH: melanocyte-stimulating hormone (melanotropin), peptide hormone that activates melanocytes; stimulus in the skin graft test (SYSMEHFRWGKPV; ends and bridges not checked; UniProt P01189 138-150, looked up) [reference compound] |  | Eumelanin production, 10^-9 M of α-MSH added ([1]; α-MSH alone): +; Eumelanin production, 10^-9 M of α-MSH added ([3]; α-MSH alone, skin grafts cultured in Ham's F-12 at 37° C. for 2 days): +
9 |  | Ac--Cys--Cys--Trp--Arg--Ser--His--Gln--Pro--NH2 (Ac-CCWRSHQP-NH2; cysteine pairing not given here) [compound 74] | ± | 
